The subject of assay [1] is tuberin phosphorylation at T-1462 and S-939. The assay is described as follows: Tuberin phosphorylation at T-1462 and S-939, immunoblot in serum-starved Nf1-deficient cells. Type of assay: cell-based, mouse. Particulars: 200 nM wortmannin or U0126. For orientation: In western blotting, separated proteins are transferred to a membrane and probed.
Assay [2] relates to S6K1 phosphorylation at T-389 (readout of mTOR activation). Put plainly: S6K1 (T-389) phosphorylation immunoblot in serum-starved Nf1-deficient MEFs. Type of assay: cell-based, mouse. The following applies: serum-deprived Nf1-null MEFs; pre-treatment 30 min; 20 nM rapamycin, 200 nM wortmannin, U0126.
For assay [3], the system named is S6K1 phosphorylation in NF1-/- Schwann cells. Put plainly: S6K1 phosphorylation immunoblot in neurofibroma-derived NF1-/- Schwann cells. The following applies: NF1-/- Schwann cells from human cutaneous and plexiform neurofibromas. Type of assay: cell-based. The protocol:
Litter-mate matched MEFs or NIH3T3 cells were plated in serum-free media at a density of 1.0×10^6 cells/10-cm plate. After 18 hours, 200 nM insulin or 6 μM LPA was added. Where indicated, cells were pre-treated with DMSO, 20 nM rapamycin (Calbiochem), 200 nM Wortmannin (Sigma-Aldrich), or indicated concentrations of U0126 (Calbiochem) for 30-min. For amino acid withdrawal studies, cells were washed and media was replaced with D-PBS for the indicated times. Following stimulation, cells were lysed in 1% SDS boiling lysis buffer. Neurofibroma-derived patient matched NF1^+/− and NF1^−/− Schwann cells were isolated and cultured as previously described (Rosenbaum, et al., J. Neurosci. Res. 61:524-532 (2000); Serra, et al., Hum. Mol. Genet. 9:3055-3064 (2000)). Schwann cells were seeded at a concentration of 2.5×10^5 cells/6-cm plate in DMEM containing 0.1% serum without forskolin, insulin or heregulin and lysed as described above. […] Clarified lysates were normalized for protein levels and analyzed by Western blotting with the following antibodies: Phospho-p70S6K(T-389), Phospho-Tuberin (S-939), Phospho-Tuberin (T-1462), Phospho-Akt(S-473), Phospho-p44/42 Erk (T-202/Y-204) (Cell Signaling Technologies), Tuberin (C-20) (Santa Cruz Biotechnology), Protein Kinase Bα/AKT1, Actin, β-Tubulin (Sigma-Aldrich) and avian p90RSK1. […]

Assay [4] concerns tuberin phosphorylation at S-1798. Put plainly: Phosphorylation of immunoprecipitated tuberin at S-1798 in serum-starved Nf1-deficient MEFs. The format is cell-based, mouse.
The test system of assay [5] is MPNST cell lines from NF1 patients. The assay is described as follows: MPNST proliferation studies (live cell count, trypan blue exclusion). Particulars: Homo sapiens, 168 h; two MPNST cell lines from two NF1 patients; 7 days; rapamycin 0.01-100 nM. Type of assay: cell-based.

As to `N#CC(=C(/N)Sc1ccccc1N)/C(C#N)=C(\N)Sc1ccccc1N` [U0126], the “tuberin phosphorylation at T-1462 and S-939” value in assay [1] is given as “no effect”. Further, in assay [2], the “aberrant activation (phosphorylation) of S6K1” value is “suppressed S6K1 phosphorylation in these cells to a similar extent”. For the same compound, in assay [3], the S6K1 phosphorylation entry was “blocked”. Further, the “tuberin phosphorylation at S-1798 (basophilic RXRXXpS/T site)” value in assay [4] is given as “suppressed”.

In turn, `CO[C@H]1C[C@@H]2CC[C@@H](C)[C@@](O)(O2)C(=O)C(=O)N2CCCC[C@H]2C(=O)O[C@H]([C@H](C)C[C@@H]2CC[C@@H](O)[C@H](OC)C2)CC(=O)[C@H](C)/C=C(\C)[C@@H](O)[C@@H](OC)C(=O)[C@H](C)C[C@H](C)/C=C/C=C/C=C/1C` [rapamycin] yielded an IC50 in assay [5] of 1 to 10 nM.

In general, IC50 refers to the midpoint of a concentration-inhibition curve.

For the origin of these results see US20060160837A1, “Rapamycin compounds in the treatment of neurofibromatosis type 1” (The Brigham and Women's Hospital, Inc., priority 2004, published 2006).
